According to PMC11725581, “Developing novel Lin28 inhibitors by computer aided drug design” (Cell Death Discovery, 2025):

How the values were obtained:
[1] = molecular target: T1, Lin28b ZKD (Homo sapiens, UniProt Q6ZN17); experiment: 1H-15N HSQC NMR of Lin28b-ZKD with ligand; assay type: binding; settings: ligand added in 20:1 molar ratio
T1 sequence (Q6ZN17 127-166 limits assumed): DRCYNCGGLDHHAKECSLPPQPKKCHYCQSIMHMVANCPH
Description: Given that Ln268 is derived from the parent compound Ln15, we wanted to assess whether the improved properties of Ln268 were linked to a potential difference in its interaction with Lin28 ZKD. To this end, we collected ^1H-^15N HSQC spectra of Lin28b-ZKD, Lin28b-ZKD + Ln15, and Lin28b-ZKD + Ln268. RNA binding proteins (RBPs) commonly have binding pockets that are intrinsically disordered, as evidenced by the narrow chemical shift dispersion observed in the HQSC of Lin28b-ZKD alone (Fig. 3D). Addition of either Ln15 or Ln268 led to changes in the chemical shifts of ca. 20 residues, consistent with the change in conformation of the Lin28b-ZKD segment which encompasses residues 137–160 (three of which are prolines) upon RNA binding (Fig. 3E). Although many of the peak shifts are the same for the Ln15 and Ln268 containing samples, there are around 7 resonances where the peaks disappear in the case of Ln268.
NMR spectra were recorded at 5 °C on a Bruker Avance III 850 MHz spectrometer, equipped with a TCI cryoprobe. ^1H-^15N HSQC experiments were recorded on ^13C/^15N-labeled Lin28b ZKD (230 μM), in 20 mM d-Tris-HCl (pH 7.5), 100 mM NaCl, 1 mM d-DTT, 0.02% NaN3, 0.25 mM ZnCl2 + 1 mM IDA, and 10% D2O, to which unlabeled Ln15 and Ln268 was added, respectively. The time domain matrix was 4k by 512. Four scans were acquired per t1 increment. Spectra were processed and plotted using Topspin to a final size of 8k by 1k. For the overlays, the levels were set to the same base level in all cases, with a multiplication factor of 1.1.

[2] = system: ES-2 cells; experiment: Cell proliferation (Incucyte), ES-2; assay type: cell-based; settings: Lin28a/Lin28b-negative
Description: To further evaluate whether the suppressive effects of Ln268 are specific to Lin28-positive cancer cells, we compared cell growth rates of DuNE (Lin28b-positive line) and Du145 (Lin28b-negative line), both of which are Lin28a-negative. DuNE has the same genomic background with Du145 except for the transduction of the SRRM4 gene. […] Furthermore, Ln268 had no impact on the cell growth of DuNE(KO) cells, in which the Lin28b gene was knocked out by CRISPR (Fig. 5C). […] We also tested several ovarian and endometrial cancer cell lines with different Lin28a and Lin28b expression profiles (Fig. 5E).

residues of Lin28b-ZKD with changed chemical shifts (1H-15N HSQC) [1]: ca. 20 residues | resonances of Lin28b-ZKD whose peaks disappear (1H-15N HSQC) [1]: around 7 resonances
SMILES: O=c1[nH]c(Nc2ccc(F)cc2O)cs1 [Ln268]
effect on growth of ES-2 cells [2]: no or minimal impacts
